Data set [1] relates to B6 ALL cells. Description: Cell viability assay, B6 ALL cells. The data set is classed as cell-based, mouse.
In another data set the test system is DG75 cells. Description: Cell viability assay, DG75 cells. The data set is classed as cell-based, human. The note with it: 72 hour exposure prior to viability.
The subject of the next data set is Molt-4 cells. In words: Cell viability assay, Molt-4 cells. Type of data set: cell-based, human. The conditions noted are these: 72 hour exposure prior to viability.
Another data set concerns SUP-B15 cells. In words: Cell viability assay, SUP-B15 cells. The data set is classed as cell-based, human. The note with it: 72 hour exposure prior to viability.
In a further data set the test system is CCRF-CEM cells. Description: Cell viability assay, CCRF-CEM cells. The note with it: 72 hour exposure prior to viability. Type of data set: cell-based, human.
Data set [2] deals with B6 ALL cells. In words: Annexin V / PI apoptosis assay, B6 ALL cells. The data set is classed as cell-based, mouse. Here is the method:
(§1) Cells were seeded in 6-well μ[…] in 3 mls, grown for 2 days and treated with the indicated drug. After centrifugation and washing in cold PBS cells were stained with PI (Sigma Aldrich, St. Louis, Mo.) and APC-conjugated Annexin V in a binding buffer (0.1 M Hepes (pH 7.4), 1.4 M NaCl, and 25 mM CaCl2 solution) (BD Pharmingen, San Jose, Calif.) according to the manufacturer's protocol. Flow cytometric analysis was conducted on a Accuri flow cytometer (BD Biosciences). […] FIG. 1 A) Flow cytometry of Annexin V assay. […] B) Quantitation of non-apoptotic cells.

In another data set the test system is SUP-B15 ALL cells. In words: Annexin V / PI apoptosis assay, SUP-B15 cells. The data set is classed as cell-based, human. Here is the method: as §1
The target of another data set is T1, TS (Homo sapiens, UniProt P04818).
T1 construct: Jurkat cells were exposed to 10 nM FdUMP[10] or 100 nM 5-FU for the indicated time, lysed and assayed for TS activity; endogenous in cells; host or cells: Jurkat
T1 sequence (P04818 whole entry): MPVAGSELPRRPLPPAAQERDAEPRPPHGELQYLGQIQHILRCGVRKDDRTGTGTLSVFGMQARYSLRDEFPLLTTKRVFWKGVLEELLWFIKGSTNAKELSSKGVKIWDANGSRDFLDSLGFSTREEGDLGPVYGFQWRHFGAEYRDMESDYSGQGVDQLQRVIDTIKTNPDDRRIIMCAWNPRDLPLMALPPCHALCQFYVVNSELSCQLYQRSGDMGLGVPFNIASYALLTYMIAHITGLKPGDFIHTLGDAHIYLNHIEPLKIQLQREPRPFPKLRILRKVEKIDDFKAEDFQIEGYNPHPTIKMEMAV
In words: TS catalytic activity in treated Jurkat cells. The data set is classed as cell-based. Here is the method: Cells were plated at 1.5×10^6 cells in 100 mm2 plates and grown overnight in RPMI 1640 medium with 20% FBS. Cells were exposed to the indicated drug for 8, 16, 24, or 48 hours. Cells were then harvested in 25 mM Tris-HCl, pH 7.4 with Complete Protease Inhibitor Cocktail (Roche), put through 2 freeze/thaw cycles, and vortexed. The lysates were centrifuged at 10,000×g for 10 minutes at 4° C. TS assays were performed in a final volume of 200 μl containing 75 μM 5,10 methylene tetrahydrofolate in 0.5 M NaOH (Schircks Laboratories, Switzerland), 10 μM dUMP, 200,000 dpm of 3H-dUMP (Moravek Biochemicals), 100 μM 2-mercaptoethanol, and 25 mM KH2PO4, pH 7.4. Cell lysate (400 μg of protein) was added to the reaction buffer. Reactions were incubated at 37° C. for 30 minutes and stopped by addition of 100 μl of 20% TCA, incubated for 5 minutes on ice. 200 μL of activated charcoal solution (10 g activated charcoal, 0.25 g BSA, 0.25 g dextran sulfate, in 100 ml of water) was added, vortexed and maintained at room temperature for 10 minutes. Reactions were centrifuged at 10,000×g for 30 minutes. 200 μL aliquots of the supernatant were read by scintillation counting. All reactions were repeated a minimum of three times.
(A) TS inhibition assay. Jurkat cells were exposed to 10 nM FdUMP[10] or 100 nM 5-FU for the indicated time, lysed and assayed for TS activity. Activity is plotted as percentage of control. […]

A short description of data set [3]: Toxicology study in normal Balb/c mice (histopathology of bone marrow and GI tract).
Description: Normal Balb/c mice were treated with identical dose, schedule and route of each drug as in the efficacy studies (i.e. Day 1, 3, 5 and 7). 72 hours after the last dose, animals were sacrificed, bilateral femoral cells harvested and organs fixed in 10% neutral buffered formalin followed by routine tissue processing and sectioning for hematoxylin and eosin staining. Slides were then reviewed by a veterinary pathologist using a Nikon Eclipse 50i light microscope. Photographs of tissues were taken using the NIS Elements D3.10 camera and software system.
Animals were sacrificed 72 hours following their last dose. BM=bone marrow, LI=large intestine, SI=small intestine.
The 5-FU dose was chosen as it delivers the exact same amount of fluoropyrimidine as the F10 dosed at 300 mg/kg. GI tract and bone marrow slides were analyzed by a veterinary pathologist blinded to treatment.
Data set [4] concerns Jurkat cells, a human T cell ALL line. In words: Sensitivity of Jurkat cells to F10. The data set is classed as cell-based. From the text: One pathway that the inventors of the present invention believed could be exploited was the increased uptake of oligonucleotides by ALL cells. F10 is a poison deoxy-oligonucleotide that is a 10mer of the TS inhibitory 5-FU metabolite, 5-fluoro-2′-deoxyuridine-5′-O-monophosphate (FdUMP[10]) SEQ ID NO: 1. […] Activity of these targets is important for any replicating cell regardless of driving mutations. […] In this invention, the activity, toxicity and uptake of F10 in preclinical models of ALL was determined.

Data set [5] relates to Baf-3 cells expressing the T315I variant of BCR-ABL. In words: Syngeneic Baf-3 BCR-ABL T315I model in Balb/c mice, survival. The data set is classed as in vivo. The conditions noted are these: 300 mg/kg tail vein QOD x4 doses; p=0.0013. Here is the method:
(§2) Committee approved all mouse experiments. […] Control animals were injected with PBS.

For data set [6], the system named is Ara-C resistant B6 ALL cells. Description: C57Bl/6 mice injected with Ara-C resistant B6 ALL cells, survival. Type of data set: in vivo. The conditions noted are these: control median 12 days. Here is the method: as §2
A) Cell viability assays.

The subject of data set [7] is B6 ALL cells. In words: Engraftment of treated B6 ALL cells in syngeneic C57Bl/6 mice. The data set is classed as in vivo, mouse. The conditions noted are these: cells treated with 50 nM F10 for 24 hours prior to injection. From the text: B) Engraftment of human HSCs.
In data set [8] the test system is panel of human and mouse ALL cell lines. The conditions noted are these: for IC50: 72 hours.
Description: (§3) All human cell lines were maintained in RPMI media (Gibco, Carlsbad, Calif.) supplemented with 10% FBS, penicillin and streptomycin. Cells were grown at 37° C. with 5% CO2. Viability assays were done using the Cell Titer-Glo assay (Promega, Madison, Wis.) according to the manufacturer's protocol or by Trypan blue exclusion assay using the Countess cell counting system (Invitrogen, Carlsbad, Calif.). All murine cells were maintained in stem cell media (40% DMEM, 40% IMDM, 20% FBS, supplemented with murine SCF to 10 ng/ml, murine IL6 to 2 ng/ml, and murine IL3 to 0.4 ng/ml).
In order to assess the activity of F10 a panel of human and mouse ALL cell lines were exposed to a titration of F10, 5-FU, cytarabine or doxorubicin. After 72 hours viability was assessed and the IC50 values for each was determined.
For data set [9] the following is noted: mouse, in vivo.
The test system of another data set is DG-75 tumors. Description: DG75 xenograft in nude mice. The conditions noted are these: 300 mg/kg tail vein QOD for 5 doses.
The next data set has as its system Jurkat tumors. Description: Jurkat xenograft in nude mice. The note with it: 300 mg/kg tail vein QOD for 5 doses.
For another data set, the system named is SUP-B15 tumors. Description: SUP-B15 xenograft in nude mice. The note with it: 300 mg/kg tail vein QOD for 5 doses.
Data set [10] concerns B6 ALL cells. In words: Syngeneic B6 ALL model in C57Bl/6 mice, survival. The conditions noted are these: 300 mg/kg tail vein QOD.
Description: (§4) Committee approved all mouse experiments. Luciferase-tagged leukemia cells were transplanted into 6- to 8-wk-old C57Bl/6 or Balb/c recipient mice by tail-vein injection of 1×10^6 viable cells. Mice were monitored by bioluminescent imaging on day 6. Imaging was performed using an IVIS100 imaging system (Caliper LifeSciences, Hopkinton, Mass.). Mice were injected with 150 mg/kg D-Luciferin (Gold Biotechnology, St. Louis, Mo.), anesthetized with isoflurane, and imaged for 2 min. For the xenograft studies 6-8-wk old nude mice were subcutaneously injected with 2×10^6 cells mixed with 200 μl matrigel (BD Bioscience). Chemotherapy was initiated upon detection of clear signals or reproducibly palpable flank tumors. Mice were treated with 300 mg/kg FdUMP[10] by tail vein injection. Control animals were injected with PBS. Repeat luciferase imaging or tumor volume measurements were performed following treatment.
B) Survival of Balb/c mice injected with Baf-3 cells expressing the T315I variant of BCR-ABL treated with saline or F10 at 300 mg/kg QOD ×4 doses as indicated. […] D) Volumes of Jurkat tumors in nude mice treated with saline or F10 at 300 mg/kg QOD ×5 doses as indicated. […] F) Survival of all xenograft bearing mice from time of injection treated with saline or F10 at 300 mg/kg QOD ×5 doses as indicated. All p values were derived from log rank tests.
In this system Baf-3 cells were infected with an MSCV based virus that expressed the T315 variant of BCR-ABL seen in many cases of relapsed Philadelphia chromosome positive ALL^8. […] Nude mice were subcutaneously injected with 2×10^6 cells in matrigel and once a reproducibly palpable tumor was established were treated with F10 at 300 mg/kg or saline by tail vein injection QOD for 5 doses.
In data set [11] the test system is SUP-B15, Jurkat, and DG75 human ALL cell lines in xenograft models. In words: All xenograft bearing mice (SUP-B15, Jurkat, DG75), survival and eradication. The note with it: 300 mg/kg QOD for 5 doses.
Description: as §4
(§5) B) Survival of Balb/c mice injected with Baf-3 cells expressing the T315I variant of BCR-ABL treated with saline or F10 at 300 mg/kg QOD ×4 doses as indicated. […] D) Volumes of Jurkat tumors in nude mice treated with saline or F10 at 300 mg/kg QOD ×5 doses as indicated. […] F) Survival of all xenograft bearing mice from time of injection treated with saline or F10 at 300 mg/kg QOD ×5 doses as indicated. All p values were derived from log rank tests. […]
Data set [12] relates to Ara-C resistant B6 ALL cells. Description: Cell viability assay, Ara-C resistant B6 ALL lines. The conditions noted are these: Mus musculus, 72 h, read-out: average IC50 of cytarabine, relapsed (resistant) cells.
Description: as §3
When the mice were moribund bilateral femur cells from 4 separate animals were harvested and they were placed in culture.
The mark [13] stands for this setting: 72 hour exposure prior to viability, read-out: IC50 B6 ALL.
Setting [14] is: 5-FU 121 mg/kg QOD x4, sacrificed 72 hours after last dose.
The mark [15] stands for this setting: F10 300 mg/kg QOD x4, sacrificed 72 hours after last dose.
Where [16] appears, read: Mus musculus, 72 hour exposure prior to viability, read-out: IC50 B6 ALL.

Like-named read-outs stand apart in the source and are kept apart here.

Description for DG-75 tumors: as §4, §5
Description for Jurkat tumors: as §4, §5
Description for SUP-B15 tumors: as §4, §5

Take `O=c1[nH]cc(F)c(=O)[nH]1` [5-FU, reference compound]: the IC50 with B6 ALL cells [1] (setting [13]) was 799 nM; in the data set on DG75 cells it was 14000 nM; with Molt-4 cells, 4960 nM; in the data set with SUP-B15 cells it was 425 nM; in the data set with CCRF-CEM cells, more than 50000 nM. The “induction of apoptosis (non-apoptotic cells vs controls)” value in the data set with B6 ALL cells [2] (100 nM 5-FU, 72 hours) is recorded as “not significantly different from controls”; in the data set with SUP-B15 ALL cells (100 nM 5-FU, 72 hours), “not significantly different from controls”. In addition, the “TS inhibition (activity as percentage of control)” value on TS (100 nM 5-FU, compared with 10 nM F10) is on record as “could not be achieved by 5-FU”. Further, the “GI tract toxicity (histopathology)” value in [3] (setting [14]) was “abundant tissue damage and immune cell infiltration”. Moreover, in [3] (setting [14]), the “bone marrow toxicity (histopathology)” value was “pancytopenic and hemorrhagic marrow”.
With FdUMP[10] [F10], the IC50 came out at 0.07 nM in the data set with B6 ALL cells [1] (setting [13]); 4.12 nM with DG75 cells; 1.88 nM in the data set on Molt-4 cells; 0.21 nM with SUP-B15 cells; 1.14 nM with CCRF-CEM cells; 1.48 nM in [8] (read-out: average IC50 value for all cell lines, average over all cell lines). The half-maximal inhibitory concentration (IC50) in [8] (read-out: range of IC50 values over all cell lines, range over cell lines) was in the range of 0.07 to 5.4 nM. Further, the “sensitivity of Jurkat cells” value in [4] is reported as “low nanomolar sensitivity”. Besides, the “induction of apoptosis (Annexin V and PI positive cells)” value with B6 ALL cells [2] (1 nM F10, 72 hour exposure) was “robust induction of Annexin V and PI positive cells”; in the data set on SUP-B15 ALL cells (1 nM F10, 72 hour exposure), “robust induction of Annexin V and PI positive cells”. The survival vs saline result in data set [5] is recorded as “significant prolongation of survival”. For the same compound, the “TS inhibition (activity as percentage of control)” value on TS (10 nM F10, 8-48 hours) is “profound and prolonged TS inhibition”. Further, the median survival in data set [6] (F10 300 mg/kg QOD) is 31 days. Further, the “engraftment of B6 ALL cells (bioluminescence)” value in the data set on B6 ALL cells [7] was “significantly reduced engraftment”. Moreover, the “potency relative to 5-FU” value in [8] is “more than 1000 times”. In addition, in data set [9], the “body weight of leukemic mice” value is given as “protected the mice from leukemia induced weight loss”. Besides, the tumor volume response result with DG-75 tumors, with Jurkat tumors and in the data set on SUP-B15 tumors was “tumor regression” throughout. In addition, the “median OS” value is on record as 18 days in the data set on B6 ALL cells [10] (4 treatments, control 15 days, p<0.0001); 24 days in the data set with B6 ALL cells [10] (6 treatments, p=0.0009); 30 days in the data set with B6 ALL cells [10] (9 treatments, p=0.0001). Further, the tumor eradication result in data set [11] (in several cases) was “complete eradication of the tumor”. The “survival of all xenograft bearing mice vs saline” value in data set [11] (p=0.0098) is “significant survival advantage”. Further, in [3] (setting [15]), the “GI tract toxicity (histopathology)” value is reported as “only a mild increase in apoptotic cells”. For the same compound, the “bone marrow toxicity (histopathology)” value in [3] (setting [15]) is on record as “only minimal marrow toxicity”.
On to `Nc1ccn([C@@H]2O[C@H](CO)[C@@H](O)[C@@H]2O)c(=O)n1` [Cytarabine], for which the IC50 worked out at 11.9 nM in the data set on B6 ALL cells [1] (setting [16]); 11 nM in the data set on B6 ALL cells [1] (Mus musculus, parental B6 ALL, 72 hours, read-out: IC50 of cytarabine, parental cell line); 64.3 nM with DG75 cells (Homo sapiens, DG-75); 10.6 nM in the data set with Molt-4 cells (Homo sapiens, MOLT-4); 8.32 nM in the data set on CCRF-CEM cells (Homo sapiens, CCRF-CEM); 23 nM in data set [12]. Also, the “survival compared with control” value in [6] (cytarabine 100 mg/kg QOD) is “lived only a day longer”.
For `COc1cccc2c1C(=O)c1c(O)c3c(c(O)c1C2=O)C[C@@](O)(C(=O)CO)C[C@@H]3O[C@H]1C[C@H](N)[C@H](O)[C@H](C)O1` [Doxorubicin], the IC50 in the data set with B6 ALL cells [1] (setting [16]) is 4.84 nM; in the data set on DG75 cells (Homo sapiens, DG-75), 150 nM; with Molt-4 cells (Homo sapiens, MOLT-4), 19.5 nM; in the data set on SUP-B15 cells (Homo sapiens, SUP-B15), 19.4 nM; with CCRF-CEM cells (Homo sapiens, CCRF-CEM) it was 36.3 nM.

The term IC50 denotes the midpoint of a concentration-inhibition curve.

The values are drawn from patent publication US20170080009A1, “Oligonucleotide Compositions and Methods for Treating Acute Lymphoblastic Leukemia” (priority 2014, published 2017).
